Measurements taken from ChEMBL document CHEMBL4411271, “New Generation of Selective Androgen Receptor Degraders: Our Initial Design, Synthesis, and Biological Evaluation of New Compounds with Enzalutamide-Resistant Prostate Cancer Activity” (J Med Chem, 2019).

Legend:
MR49F = experiment: animal or person; assay type: functional; conditions: Homo sapiens, po, 336 h, read-out: TGI
Description: Antitumor activity against human MR49F cells xenografted in NSG cells assessed as tumor growth inhibition at 100 mg/kg/day, po for 14 days and measured twice weekly relative to control

in vitro = conditions: mouse, microsomes
Description: Half life in mouse liver microsomes at 50 uM in presence of cofactors for phase 1 and 2 metabolism

[1] = mouse, microsomes, 50 µM

Work on `C[C@](O)(Cn1ccc2c(F)cccc21)C(=O)Nc1ccc(C#N)c(Cl)c1` yielded an inhibition in vivo at 100 mg/kg/day (MR49F) of 40 to 60%.
Compound `C[C@](O)(CN1CCc2cc(F)ccc21)C(=O)Nc1ccc(C#N)c(Cl)c1` has a half-life at 50 µM (in vitro) of 9.16 min.
In the case of `C[C@](O)(Cn1ccc2cc(F)c(-c3ccccc3)cc21)C(=O)Nc1ccc(C#N)c(Cl)c1`, the inhibition in vivo at 100 mg/kg/day (MR49F) is reported as 40 to 60%.
Compound `C[C@](O)(COc1ccc(C#N)cc1)C(=O)Nc1ccc(C#N)c(C(F)(F)F)c1` [ENOBOSARM] has a CLH [1] of 1400 µL/min/mg.
